{
  "source": "patent US20250171459A1",
  "about": "“2-METHYL-4',5'-DIHYDROSPIRO[PIPERIDINE-4,7'-THIENO[2,3-C]PYRAN] DERIVATIVES AS INHIBITORS OF APOL1 AND METHODS OF USING SAME” (Vertex Pharmaceuticals Incorporated, priority 2022, published 2025)",
  "data": [
    {"molecular_target": "T1, APOL1 (Homo sapiens, UniProt O14791)", "T1 sequence (O14791 1-398 S342G/I384M)": "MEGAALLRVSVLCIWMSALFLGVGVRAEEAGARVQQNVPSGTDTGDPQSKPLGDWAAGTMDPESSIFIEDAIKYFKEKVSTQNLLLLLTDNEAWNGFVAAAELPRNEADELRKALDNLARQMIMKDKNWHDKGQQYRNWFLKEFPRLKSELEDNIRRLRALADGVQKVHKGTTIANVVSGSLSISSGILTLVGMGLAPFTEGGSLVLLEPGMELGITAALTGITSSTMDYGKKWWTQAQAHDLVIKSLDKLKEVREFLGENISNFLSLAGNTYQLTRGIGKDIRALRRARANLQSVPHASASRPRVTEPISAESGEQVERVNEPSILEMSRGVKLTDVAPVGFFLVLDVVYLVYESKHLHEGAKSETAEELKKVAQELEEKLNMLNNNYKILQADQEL", "experiment": "MultiTox-Fluor Multiplex Cytotoxicity Assay in tet-inducible APOL1 T-REx-HEK293 cells (cell rescue, ratio of dead to live cells)", "format": "cell-based", "details": "tet-inducible transgenic APOL1 T-REx-HEK293 cell lines, 50 ng/mL tet, 24 hours; read-out: IP50 (i.e., IC50 for cell proliferation)", "summary_of_the_method": "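T-REx-HEK293 cells with tet-inducible APOL1 were treated with compound (10 μM top, 10-point 3-fold dilution, duplicate) plus 50 ng/mL tetracycline for 24 h at 37° C, in DMEM with 2% tet-free FBS. MultiTox-Fluor protease signals gave a dead/live ratio, normalized to no tet (100% viability) and tet alone (0%).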", "units": {"IC50": "nM"}, "values": [
      {"smiles": "CCc1cc2c(s1)CCO[C@@]21CCN(CC2CN(C(=O)c3nonc3N)C2)[C@@H](C)C1", "note": "[Compound 422, (4-amino-1,2,5-oxadiazol-3-yl)-[3-[[(2′S,4R)-2-ethyl-2′-methyl-spiro[6,7-dihydrothieno[3,2-c]pyran-4,4′-piperidine]-1′-yl]methyl]azetidin-1-yl]methanone]", "IC50": "< 100"},
      {"smiles": "C[C@H]1C[C@@]2(CCN1Cc1cccc(OCC(N)=O)c1)OC[C@H](O)c1cc(Cl)sc12", "note": "[Compound 771]", "IC50": "100 to 500"},
      {"smiles": "CCc1cc2c(s1)CCOC21CCN(Cc2cc3nc(OC)ccc3[nH]2)CC1", "note": "[Compound 1126, 2′-ethyl-1-((5-methoxy-1H-pyrrolo[3,2-b]pyridin-2-yl)methyl)-6′,7′-dihydrospiro[piperidine-4,4′-thieno[3,2-c]pyran]]", "IC50": "< 100"},
      {"smiles": "CCc1cc2c(s1)CCOC21CCN(Cc2cn(CCC(=O)NCCC(F)(F)F)nn2)CC1", "note": "[Compound 1100]", "IC50": "500 to 1000"},
      {"smiles": "CC(=O)OC1CO[C@@]2(CCN(Cc3cnn(CCS(C)(=O)=O)c3)[C@@H](C)C2)c2sc(Cl)cc21", "note": "(stereo partly drawn) [Compound 847, [(2′S, 7R)-2-chloro-2′-methyl-1′-[[1-(2-methylsulfonylethyl)pyrazol-4-yl]methyl]spiro[4,5-dihydrothieno[2,3-c]pyran-7,4′-piperidine]-4-yl]acetate]", "IC50": "< 100"},
      {"smiles": "C[C@H]1C[C@@]2(CCN1Cc1cnn(CCS(C)(=O)=O)c1)OCC(O)c1cc(C(F)(F)F)sc12", "note": "(single isomer, unassigned) [Compound 881]", "IC50": "< 100"},
      {"smiles": "CCc1cc2c(s1)CCO[C@@]21CCN(C[C@H]2C[C@@H](NC(=O)OCc3ccccc3)C2)[C@@H](C)C1", "note": "[Compound 380]", "IC50": "100 to 500"},
      {"smiles": "CCc1cc2c(s1)CCO[C@@]21CCN(CC2CN(S(=O)(=O)c3ccccc3)C2)[C@@H](C)C1", "note": "[Compound 493]", "IC50": "500 to 1000"},
      {"smiles": "CCc1cc2c(s1)CCO[C@@]21CCN(Cc2cn(Cc3cnoc3)nn2)[C@@H](C)C1", "note": "[Compound 45]", "IC50": "< 100"},
      {"smiles": "CCc1cc2c(s1)CCOC21CCN(Cc2cn(CC(O)C(C)(C)O)nn2)C(C)C1", "note": "(stereo not drawn) [Compound 123]", "IC50": "< 100"},
      {"smiles": "CCc1cc2c(s1)CCO[C@@]21CCN(Cc2cnc(NCc3ccc(O)cn3)nc2)[C@@H](C)C1", "note": "[Compound 206]", "IC50": "< 100"},
      {"smiles": "CCc1cc2c(s1)CCO[C@@]21CCN(Cc2cn(C3CCCN(C(C)=O)C3)nn2)[C@@H](C)C1", "note": "(stereo partly drawn) [Compound 61]", "IC50": "100 to 500"},
      {"smiles": "C[C@H]1C[C@@]2(CCN1Cc1cnn(C[C@@H](O)C(N)=O)c1)OCCc1c2sc(C(F)(F)F)c1CO", "note": "[Compound 985, (2R)-2-hydroxy-3-[4-[[(2′S, 7R)-3-(hydroxymethyl)-2′-methyl-2-(trifluoromethyl)spiro[4,5-dihydrothieno[2,3-c]pyran-7,4′-piperidine]-1′-yl]methyl]pyrazol-1-yl]propanamide]", "IC50": "< 100"},
      {"smiles": "C[C@H]1C[C@@]2(CCN1Cc1cnn(CC(C)(CO)CO)c1)OCCc1cc(Cl)sc12", "note": "[Compound 634]", "IC50": "< 100"},
      {"smiles": "CCc1cc2c(s1)CCOC21CCN(Cc2nc(-c3ccccc3)[nH]c2Cl)CC1", "note": "[Compound 1145]", "IC50": "500 to 1000"},
      {"smiles": "CCc1cc2c(s1)CCO[C@@]21CCN(CC2CN(C(=O)CNC(C)=O)C2)[C@@H](C)C1", "note": "[Compound 480]", "IC50": "100 to 500"},
      {"smiles": "C[C@H]1C[C@@]2(CCN1Cc1cccc(F)c1O)OCCc1cc(Cl)sc12", "note": "[Compound 687]", "IC50": "500 to 1000"},
      {"smiles": "C[C@H]1C[C@@]2(CCN1Cc1cnn(C[C@@H]3CCC(=O)N3)c1)OCCc1c2sc(C(F)(F)F)c1CO", "note": "[Compound 922]", "IC50": "< 100"},
      {"smiles": "Cc1c[nH]c(=O)c(CN2CC[C@]3(C[C@@H]2C)OCCc2cc(CC(F)F)sc23)c1", "note": "[Compound 590]", "IC50": "500 to 1000"},
      {"smiles": "C[C@H]1C[C@@]2(CCN1Cc1ccccc1F)OCCc1c2sc(Cl)c1CO", "note": "[Compound 713]", "IC50": "100 to 500"},
      {"smiles": "C[C@H]1C[C@@]2(CCN1Cc1cn(C(C)(C)CO)nn1)OCCc1cc(CC(F)F)sc12", "note": "[Compound 544]", "IC50": "500 to 1000"}
    ]}
  ]
}
